Data reported in patent US12630516B2, “Compounds” (NRG Therapeutics Ltd., priority 2020, dated 2026).
≈ marks a conversion by molar mass, not a printed value.

Experiments:
mPTP = mPTP activity (Ca2+ retention, Fluo5N FLIPR) assay in isolated rat liver mitochondria; format: biochemical; settings: average value from multiple experiments (n ≥ 2)
Source text: Pharmacological inhibition or modulation of the mPTP can be measured in well characterised ‘Ca^2+ retention’ assays performed in isolated mitochondria. In vitro, isolated mitochondria rapidly sequester exogenous Ca^2+ until the intramitochondrial Ca^2+ concentration reaches the threshold for mPTP activation. Once the pore is activated, mitochondrial integrity is compromised and the stored Ca^2+ is released. The distribution of Ca^2+ between extra- and intra-mitochondrial compartments can be measured in real time with the use of membrane-impermeant Ca^2+ sensitive fluorescent dyes. Depending on the configuration of the assay, inhibition or modulation of the mPTP either delays the opening of the pore or increases the concentration of Ca^2+ required to induce mPTP opening.
MPTP activity was measured in mitochondria freshly isolated from female Sprague Dawley (250 to 300 gram) rat livers using the following method. Cervical dislocation was performed on the rat. The liver was then perfused in-situ with ˜40 ml cold Dulbecco's Phosphate Buffered Saline (DPBS) prior to dissection and transferred into 30 ml Isolation Buffer (250 mM Sucrose, 10 mM KCl, 1 mM EGTA, 1 mM EDTA, 25 mM HEPES, adjusted to pH 7.5 with 1M NaOH). Each lobe of the liver was then removed from the buffer, minced using tweezers and a scalpel into ˜5 mm pieces then transferred into a 50 ml Potterton dounce homogenization tube on ice containing 30 ml ice-cold centrifugation buffer (300 mM Trehalose, 25 mM HEPES, 1 mM EGTA, 1 mM EDTA, 10 mM KCl, adjusted to pH 7.5 with 1M NaOH and supplemented with 0.1% bovine serum albumin (BSA) and complete protease inhibitor cocktail (one tablet of inhibitor per 50 mls of buffer). Homogenisation was carried out using a teflon pestle at 1800 rpm. The slurry was centrifuged at 800 g for 10 min at 4° C., then the supernatant centrifuged at 10,000 g for 10 min. The pellet was washed once with FLIPR assay buffer (75 mM Mannitol, 25 mM Sucrose, 5 mM Potassium Phosphate Monobasic, 20 mM Tr is base, 100 mM KCl, 0.1% BSA adjusted to pH 7.4 with 5M HCl) centrifuged again, then resuspended in FLIPR assay buffer to a concentration of 8.8 mg/ml protein.
Tested compounds (10 mM stock in DMSO) were serially diluted in DMSO in half log steps to generate 10 test concentrations (final concentrations in assay 30 μM to 1 nM). An intermediate dilution of 5 μl DMSO samples into 247 μl FLIPR assay buffer was carried out prior to transfer of 5 μl into duplicate wells of a 384 well polypropylene assay plate. Control wells were 0.5% (v/v) DMSO and 5 μM cyclosporin A.
A stock mitochondria/Fluo5N assay solution was prepared in 5.6 ml FLIPR assay buffer (at RT) supplemented with succinate disodium salt (10 mM), rotenone (1 μM), Fluo5N pentapotassium salt (2 μM) and 1 ml mitochondria suspension, then transferred (15 μl) into the assay plate containing test compounds and incubated for 10 min at RT. Assay plates were then transferred to a FLIPR Tetra plate reader (Molecular Devices). Dye fluorescence was then measured every 3 sec for a total of 10 min. After 12 sec, a 2.5 μl bolus of CaCl2 (75 μM) was added from a source plate containing 675 μM CaCl2 in FLIPR assay buffer. IC50 values for tested compounds were calculated using the fluorescence value collected at the 10 min timepoint with % inhibition calculated using the DMSO control and cyclosporin A values as […] respectively.

[1] = PBS and FaSSIF solubility; format: physicochemical; settings: for solubility at 2 h: FaSSIF, kinetic from dmso stock, Fasted state simulated intestinal fluid, 2 hr at 25° C.
Description: Test compounds were prepared as 10 mM stocks in DMSO and 15 μl samples transferred in duplicate into 1.5 mL glass flat bottom vials (BioTech Solutions). Fasted state simulated intestinal fluid (FaSSIF) or PBS (pH 7.4) was added to each vial to final volume of 500 μl. One PTFE encapsulated stir stick (V&P Scientific) was placed in each vial before sealing with PTFE/SIL plugs (BioTech Solutions). Vials were shaken at 1100 rpm for 2 hr at 25° C. Samples were then filtered through MultiScreen Solvinert filter plates (Millipore) via vacuum filtration. Aliquots of filtrate (5 μl) plus 5 μl DMSO were diluted in 490 μl 50% acetonitrile in water containing internal standard. The filtrate was analysed and quantified against a standard of known concentration using LC-MS/MS. Solubility values of the test compound and control compound were calculated as follows: [Sample]=(Area ratiossample*INJ VOL STD*DFSample*[STD])/(Area ratio STD*INJ VOLSample).

[2] = Hepatocyte clearance assay, primary rat hepatocytes; format: in vitro ADME; settings: average value from two experiments
Description: (§1) In vitro clearance studies were performed in primary rat and human hepatocytes (BioIVT). Vials of cryopreserved rat or human hepatocytes were thawed in a 37° C. water bath for 2 min. Cells were transferred into thawing medium (Williams' Medium E containing 30% Percoll, 1×GlutaMAX-1, 15 mM HEPES, 5% fetal bovine serum (FBS), 4 μg/ml insulin, 1 μM dexamethasone), centrifuged at 100 g for 10 min then resuspended in culture medium (Leibovitz's L-15 Medium) at a concentration of 0.5×10^6 viable cells/mL (number of viable cells assessed using AO/PI staining). Hepatocytes (198 μL) were transferred into wells of a 96-well non-coated plate and placed in a 37° C. incubator for 10 min. Test compound solutions were prepared from 10 mM stocks in DMSO, diluted to 100 μM in 50% (v/v in water) acetonitrile. Test compound samples (2 μl) were added to each well of hepatocytes and incubated at 37° C. […] Peak areas were determined from extracted ion chromatograms. The slope value, k, was determined by linear regression of the natural logarithm of the remaining percentage of the parent drug vs. incubation time curve. The in vitro half-life (in vitro t½) was determined from the slope value: in vitro t½=0.693/k. […]

[3] = Hepatocyte clearance assay, primary human hepatocytes; format: in vitro ADME; settings: average value from two experiments
Description: as §1

## Cc1n[nH]c2cc(/C=C/C(=O)N[C@@H]3CCCC[C@H]3C)ccc12 (racemic) [Example 43, Racemic-(E)-3-(3-methyl-1H-indazol-6-yl)-N-((1R,2R)-2-methylcyclohexyl)acrylamide]
mPTP
  mPTP Rat liver pIC50: 6.3

## Cc1n[nH]c2cc(/C=C/C(=O)N[C@H]3c4ccccc4OC[C@@H]3C)ccc12 (single isomer, unassigned) [Example 65c]
mPTP
  mPTP Rat liver pIC50: 7.7
[1]
  solubility at 2 h: 9.2 µM (≈ 3.2 µg/mL)
[2]; primary rat hepatocytes (cryopreserved), read-out: Rat heps Clint uL/min/10^6 cells
  hepatocyte CLint at 1 µM: 37.9 µL/min/1e6 cells
[3]; primary human hepatocytes (cryopreserved), read-out: Human heps Clint uL/min/10^6 cells
  hepatocyte CLint at 1 µM: 9.4 µL/min/1e6 cells

## Cc1c(F)cccc1NC(=O)/C=C/c1ccc2cn[nH]c2c1 [Comparative Example 1, (E)-N-(2-methyl-3-fluorophenyl)-3-(1H-indazol-6-yl)acrylamide, reference compound]
[1]; PBS pH 7.4, 2 hr at 25° C.
  Solubility PBS uM (pH 7.4): 0.9 uM
[2]
  Rat heps Clint uL/min/10^6 cells: 89 uL/min/10^6 cells
[3]
  Human heps Clint uL/min/10^6 cells: 13 uL/min/10^6 cells

## Cc1c(F)cccc1NC(=O)/C=C/c1ccc2oc(=O)[nH]c2c1 [Example 6, (E)-N-(3-fluoro-2-methylphenyl)-3-(2-oxo-2,3-dihydrobenzo[d]oxazol-5-yl)acrylamide]
[1]
  solubility at 2 h: 18 µM (≈ 5.62 µg/mL)

## O=C(/C=C/c1cc2[nH]nnc2cc1F)NC1CCc2ccccc21 (stereo not drawn) [Example 27, (E)-N-(2,3-dihydro-1H-inden-1-yl)-3-(5-fluoro-1H-benzo[d][1,2,3]triazol-6-yl) acrylamide]
mPTP
  mPTP Rat liver pIC50: 6.6

## O=C(/C=C/c1ccc2c(C(F)(F)F)n[nH]c2c1)NC1CCc2ccccc21 (stereo not drawn) [Example 28, (E)-N-(2,3-dihydro-1H-inden-1-yl)-3-(3-(trifluoromethyl)-1H-indazol-6-yl) acrylamide]
mPTP
  mPTP Rat liver pIC50: 6.7

## CO[C@H]1Cc2ccccc2[C@@H]1NC(=O)/C=C/c1ccc2c(Cl)n[nH]c2c1 [Example 72, (E)-3-(3-chloro-1H-indazol-6-yl)-N-((1S,2S)-2-methoxy-2,3-dihydro-1H-inden-1-yl)acrylamide]
mPTP
  mPTP Rat liver pIC50: 8.2
